One test deals with B78-D14 wild-type cells. In words: Cell sensitivity to inhibitors (IC50 from final confluency, IncuCyte). The settings on record: Mus musculus. It counts as cell-based. The protocol:
(§1) Cells were plated in a 96-well plate at 500 cells/well in 200 μL of cell culture media. Plates were incubated overnight at 37° C. and 5% CO2. The following day, media was replaced with 0-100 mM 2-DG in quadruplicate. Plates were imaged once every 4 hrs on the IncuCyte Zoom (Essen Bioscience) for 5 days. Final confluency measurements were calculated using the system algorithm and the IC50 was determined by GraphPad Prism.

Test [1] deals with B78-D14 m.11,944^60% cells. The test is described as above. It is filed as cell-based, mouse. Conditions: for IC50: Mus musculus. The protocol: as §1
The subject of test [2] is B78-D14 m.12,436^80% cells. The description is as above. Conditions: for IC50: Mus musculus. It is filed as cell-based, mouse. As for the experimental part: as §1
The subject of test [3] is B78-D14 m.12,436^60% cells. Described as above. It is filed as cell-based, mouse. The settings on record: for IC50: Mus musculus. The protocol:
as §1

In test [4] the test system is metastatic melanoma. The settings on record: of the 15 responders; cited from earlier work.
Test [5] concerns metastatic melanoma. In words: Response of metastatic melanoma patient cohort (Riaz et al.) to nivolumab, stratified by tumour mtDNA mutation status. It counts as in vivo, human. From the text:
Mutation calls and calculated heteroplasmy were used to assign patients to mtDNA wildtype, <50% VAF or >50% VAF groups.

The next test relates to Hcmel12 tumours. In words: Manipulation of tumour-associated neutrophils with G-CSF or anti-Ly6G, with or without anti-PD1, in Hcmel12 tumours. It counts as in vivo, mouse. The protocol: To determine if neutrophil depletions were necessary for observed sensitivity to ICB, the inventors chose to manipulate the proportion of tumour-associated neutrophils using G-CSF and anti-Ly6G treatments. Hcmel12 wild-type, m.12,436^83% and cytoLbNOX cells were allografted into C57BL/6 mice and were put on G-CSF or anti-Ly6G treatment with or without antiPD1 (FIG. 43A).
For immunotherapy experiments, mice were put on a dosing regimen of 200 μg of anti-PD1 given intraperitoneally twice a week. The first dose was given 7 days post-injection and all mice were sacrificed at 21 or 13 days post-injection for B78 or HcMel12 cells respectively. Either 5 μg mouse recombinant G-CSF (Stemcell) or 100 μg anti-mouse Ly6G—clone 1A8 (2B Scientific) was given intraperitoneally every 2 days post-engraftment to mice for neutrophil depletion experiments.

The mark [6] stands for this setting: wild-type cells, read-out: IC50.
[7] abbreviates: m.12,436^80% cells, read-out: IC50.
Setting [8] is: m.12,436^60% cells, read-out: IC50.
The mark [9] stands for this setting: printed as mt.11944^80%, read-out: IC50.

Like-named read-outs stand apart in the source and are kept apart here.

For orientation: IC50 means the point on the concentration scale where inhibition reaches its midpoint. Take `O=CC[C@@H](O)[C@H](O)[C@H](O)CO` [2-DG, 2-deoxyglucose]: the IC50 with B78-D14 wild-type cells (setting [6]) was 1620 µM; in test [1] (m.11,944^60% cells, read-out: IC50) it was 1040 µM; in test [2] (setting [7]), 460 µM; in test [3] (setting [8]), 810 µM. The “sensitivity compared with wild-type cells” value in test [1] (m.11,944^60% cells) is listed as “more sensitive”; in test [2] (m.12,436^80% cells), “further enhanced”; in test [3] (m.12,436^60% cells), “more sensitive”.

For `CN(C)C(=N)N=C(N)N` [metformin], the IC50 with B78-D14 wild-type cells (setting [6]) was found to be 26300 ± 1490 µM; in test [1] (setting [9]) it was 22900 ± 700 µM; in test [2] (setting [7]), 5890 ± 710 µM; in test [3] (setting [8]), 16600 ± 2430 µM. Further, the “sensitivity compared with wild-type cells” value in test [1] (m.11,944^60% cells), in test [2] (m.12,436^80% cells) and in test [3] (m.12,436^60% cells) was “enhanced sensitivity” each time.

`CC[C@H]1/C=C/C=C/C[C@@H](C)[C@H](O)[C@@](C)(O)C(=O)[C@@H](C)[C@H](O)[C@@H](C)C(=O)[C@@H](C)[C@H](O)[C@@H](C)/C=C/C(=O)O[C@@H]2[C@H](C)[C@H](CC1)O[C@]1(CC[C@H](C)[C@H](C[C@@H](C)O)O1)[C@H]2C` [oligomycin]: the IC50 came out at 13.8 ± 3.8 µM with B78-D14 wild-type cells (setting [6]); 13.5 ± 3.32 µM in test [1] (setting [9]); 7.75 ± 0.56 µM in test [2] (mt.12436^80% cells, read-out: IC50); 13.5 ± 3.32 µM in test [3] (mt.12436^60% cells, read-out: IC50). The “sensitivity compared with wild-type cells” value in test [1] (m.11,944^60% cells), in test [2] (m.12,436^80% cells) and in test [3] (m.12,436^60% cells) was “None of the mutants demonstrated differential sensitivity” throughout.

Turning to `C=C(C)[C@H]1Cc2c(ccc3c2O[C@@H]2COc4cc(OC)c(OC)cc4[C@@H]2C3=O)O1` [rotenone], the IC50 in the test with B78-D14 wild-type cells worked out at 0.236 ± 0.026 µM; in test [1], 0.205 ± 0.033 µM; in test [2] it was 0.493 ± 0.108 µM; in test [3], 0.235 ± 0.035 µM. In addition, the entries for the “sensitivity compared with wild-type cells” value in test [1] (m.11,944^60% cells), in test [2] (m.12,436^80% cells) and in test [3] (m.12,436^60% cells) were “not differentially sensitive”, “resistance compared to wild type” and “not differentially sensitive”, respectively.

On to nivolumab, for which, in the test on metastatic melanoma [4], the complete responses was 3 and the partial responses is listed as 12. The same molecule displayed a tumours responding in the test with metastatic melanoma [5] (<50% VAF tumours) of 17%. This molecule also returned a tumours responding with metastatic melanoma [5] (>50% VAF tumours) of 40%. In addition, the “likelihood to respond, >50% VAF tumours versus mtDNA wild-type or low VAF tumours” value with metastatic melanoma [5] (Example 1 analysis) is 2.5 ×. The “rate of response of >50% VAF cancers versus wild-type or <50% VAF cancer” value with metastatic melanoma [5] (Example 2 analysis) came out at 2.6 fold. In addition, the “cohort response rate, partial or complete responses” value in the test with metastatic melanoma [5] (mtDNA mutation status-naive cohort, 70 patients) worked out at 22%. Besides, in the test with metastatic melanoma [5] (out of the 3 complete responders), the “complete responders categorised as >50% VAF” value is given as 2.

B1: G-CSF: mouse recombinant G-CSF (Stemcell) (protein, UniProt P09920 31-208, looked up)
Granulocyte …: VPLVTVSALPPSLPLPRSFLLKSLEQVRKIQASGSVLLEQLCATYKLCHPEELVLLGHSLGIPKASLSGCSSQALQQTQCLSQLHSGLCLYQGLLQALSGISPALAPTLDLLQLDVANFATTIWQQMENLGVAPTVQPTQSAMPAFTSAFQRRAGGVLAISYLQGFLETARLALHHLA
Regarding B1, the tumour-associated neutrophil proportions entry in the test with Hcmel12 tumours (across genotypes) is “increases”. Besides, in the test with Hcmel12 tumours (m.12,436^83% and cytoLbNOX tumours, G-CSF plus anti-PD1), the “sensitivity of tumours to anti-PD1” value is listed as “abolished sensitivity”. In addition, the “tumour weight versus untreated tumours at the same end-point” value with Hcmel12 tumours (without anti-PD1) is on record as “did not affect tumour weight”.

The values above are taken from patent publication US20260263567A1, “TUMOUR SENSITISATION TO CHECKPOINT INHIBITORS WITH REDOX STATUS MODIFIER” (CANCER RESEARCH TECHNOLOGY LIMITED, priority 2022, published 2026).
